Values of other authors as cited in article PMC7927942 (Journal of chemical information and modeling, 2020).

Molecular target: wild-type JAK2 JH2 (Homo sapiens, UniProt O60674)
Conditions: benchmark ligand from high-throughput screen

Sequence of wild-type JAK2 JH2 (O60674 545-809 limits assumed): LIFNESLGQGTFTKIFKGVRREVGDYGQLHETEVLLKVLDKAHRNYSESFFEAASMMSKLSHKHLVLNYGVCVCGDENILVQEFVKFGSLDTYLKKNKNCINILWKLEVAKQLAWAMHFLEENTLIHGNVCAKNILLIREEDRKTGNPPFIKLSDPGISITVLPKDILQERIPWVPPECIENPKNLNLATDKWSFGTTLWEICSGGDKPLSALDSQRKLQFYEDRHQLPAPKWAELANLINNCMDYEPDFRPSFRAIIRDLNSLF

O=C(Nc1nc2cccc(-c3ccc(CN4CCS(=O)(=O)CC4)cc3)n2n1)C1CC1 [filgotinib]
% binding at 50 μM: 9%
